The source of these data is patent publication US6770597B2, “Benzohydrazide derivatives as herbicides and desiccant compositions containing them” (Ishihara Sangyo Kaisha, Ltd., priority 2002, dated 2004).

Structures are written as SMILES.

Format in all cases: in vivo
The subject of experiment [1] is common ragweed (Ambrosia artemisiifolia L., AMBEL). Kind of experiment: Greenhouse herbicide screen, post-emerge application, phytotoxicity rating. The conditions noted are these: POST emergent, 63 g ai/ha, 14 days after application, scale 0-100. The source says: (§1) A standard greenhouse herbicide activity screening system was used to evaluate the herbicidal efficacy and crop safety of these test compounds. Seven broadleaf weed species including redroot pigweed (Amaranthus retrofiexus, AMARE), velvetleaf (Abutilon theophrasti, ABUTH), sicklepod (Cassia obtusifolia, CASOB), ivyleaf morningglory (Ipomoea hederacea, IPOHE), lambsquarters (Chenopodium album, CHEAL), common ragweed (Ambrosia artemisiifolia L., AMBEL), and cocklebur (Xanthium strumarium, XANST) were used as test species. Four grass weed species including green foxtail (Setaria viridis, SETVI), barnyardgrass (Echinochloa crus-galli, ECHCG), johnsongrass (Sorghum halepense, SORHA), and large crabgrass (Digitaria sanguinalis, DIGSA) were also used. In addition, four crop species, field corn (Zea mays L., var. Dekalb 535, CORN), soybean (Glycine max L., var. Pella 86, SOY), upland rice (Oryza sp., var.Cocodrie, RICE) and wheat (Triticum aestivum L.) were included.
(§2) All plants were grown in 10 cm square plastic pots which were filled with a sandy loam soil mix. For pre-emerge tests, seeds were planted one day prior to application of the test compounds. For post-emerge tests, seeds were planted 8-21 days prior to the test to allow emergence and good foliage development prior to application of the test substances. At the time of the post-emerge application, plants of all species were usually at the 2-3 leaf stage of development.
(§3) All test compounds were dissolved in acetone and applied to the test units in a volume of 187 l/ha. Test materials were applied at rates ranging from 15 g ai/ha to 1000 g ai/ha using a track sprayer equipped with a TJ8001E even flow flat fan spray nozzle. Plants were arranged on a shelf so that the top of the canopy (post-emerge) or top of the soil surface (pre-emerge) was 40-45 cm below the nozzle. Pressurized air was used to force the test solution through the nozzle as it was mechanically advanced (via electrically driven chain drive) over the top of all test plants/pots. This application simulates a typical commercial field herbicide application.
(§4) Pre-emergence tests were top watered immediately after treatment to incorporate the test materials, then routinely top-watered for normal growth. Post-emerge test units were always bottom-watered.
(§5) At 14 days after application of the test materials, phytotoxicity ratings were recorded. A rating scale of 0-100 was used as previously described in Research Methods in Weed Science, 2nd edition, B. Truelove, Ed., Southern Weed Science Society, Auburn University, Auburn, Ala., 1977. Briefly, “0” corresponds to no damage and “100” corresponds to complete death of all plants in the test unit. This scale was used both to determine efficacy against weed species and damage to crop species. Herbicide activity data for various compounds of this invention, which are shown by compound No. in Tables 1-12, are shown in Tables 13 and 14.

The subject of experiment [2] is green foxtail (Setaria viridis, SETVI). The description is as above. The conditions noted are these: POST emergent, 63 g ai/ha, 14 days after application, scale 0-100.
Text: as §1, §2, §3, §4, §5

For experiment [3], the system named is sicklepod (Cassia obtusifolia, CASOB). Described as above. The note with it: POST emergent, 63 g ai/ha, 14 days after application, scale 0-100.
Text: as §1, §2, §3, §4, §5

In experiment [4] the test system is redroot pigweed (Amaranthus retrofiexus, AMARE). The description is as above. The conditions noted are these: POST emergent, 63 g ai/ha, 14 days after application, scale 0-100 (0 no damage, 100 complete death).
Text: as §1, §2, §3, §4, §5

The subject of experiment [5] is cocklebur (Xanthium strumarium, XANST). The experiment is described as above. The conditions noted are these: POST emergent, 63 g ai/ha, 14 days after application, scale 0-100.
Text: as §1, §2, §3, §4, §5

Experiment [6] relates to barnyardgrass (Echinochloa crus-galli, ECHCG). The experiment is described as above. The note with it: POST emergent, 63 g ai/ha, 14 days after application, scale 0-100.
Text: as §1, §2, §3, §4, §5

Experiment [7] deals with johnsongrass (Sorghum halepense, SORHA). The experiment is described as above. The note with it: POST emergent, 63 g ai/ha, 14 days after application, scale 0-100.
Text: as §1, §2, §3, §4, §5

The subject of experiment [8] is ivyleaf morningglory (Ipomoea hederacea, IPOHE). Described as above. The conditions noted are these: POST emergent, 63 g ai/ha, 14 days after application, scale 0-100.
Text: as §1, §2, §3, §4, §5

The subject of experiment [9] is velvetleaf (Abutilon theophrasti, ABUTH). Described as above. The note with it: POST emergent, 63 g ai/ha, 14 days after application, scale 0-100.
Text: as §1, §2, §3, §4, §5

In experiment [10] the test system is large crabgrass (Digitaria sanguinalis, DIGSA). The description is as above. The note with it: POST emergent, 63 g ai/ha, 14 days after application, scale 0-100.
Text: as §1, §2, §3, §4, §5

For experiment [11], the system named is lambsquarters (Chenopodium album, CHEAL). Described as above. The note with it: POST emergent, 63 g ai/ha, 14 days after application, scale 0-100.
Text: as §1, §2, §3, §4, §5

Experiment [12] relates to common ragweed (Ambrosia artemisiifolia L., AMBEL). Kind of experiment: Greenhouse herbicide screen, pre-emerge application, phytotoxicity rating. The conditions noted are these: PRE emergent, 63 g ai/ha, 14 days after application, rating scale 0-100.
Text: as §1, §2, §3, §4, §5

For experiment [13], the system named is green foxtail (Setaria viridis, SETVI). The experiment is described as above. The conditions noted are these: PRE emergent, 63 g ai/ha, 14 days after application, rating scale 0-100.
Text: as §1, §2, §3, §4, §5

In experiment [14] the test system is sicklepod (Cassia obtusifolia, CASOB). Described as above. The note with it: PRE emergent, 63 g ai/ha, 14 days after application, rating scale 0-100.
Text: as §1, §2, §3, §4, §5

In experiment [15] the test system is redroot pigweed (Amaranthus retrofiexus, AMARE). Described as above. The note with it: PRE emergent, 63 g ai/ha, 14 days after application, rating scale 0-100.
Text: as §1, §2, §3, §4, §5

The test system of experiment [16] is cocklebur (Xanthium strumarium, XANST). Described as above. The conditions noted are these: PRE emergent, 63 g ai/ha, 14 days after application, rating scale 0-100.
Text: as §1, §2, §3, §4, §5

Experiment [17] has as its system barnyardgrass (Echinochloa crus-galli, ECHCG). Described as above. The conditions noted are these: PRE emergent, 63 g ai/ha, 14 days after application, rating scale 0-100.
Text: as §1, §2, §3, §4, §5

Experiment [18] relates to johnsongrass (Sorghum halepense, SORHA). Described as above. The conditions noted are these: PRE emergent, 63 g ai/ha, 14 days after application, rating scale 0-100.
Text: as §1, §2, §3, §4, §5

For experiment [19], the system named is ivyleaf morningglory (Ipomoea hederacea, IPOHE). The experiment is described as above. The conditions noted are these: PRE emergent, 63 g ai/ha, 14 days after application, rating scale 0-100.
Text: as §1, §2, §3, §4, §5

Experiment [20] relates to velvetleaf (Abutilon theophrasti, ABUTH). The description is as above. The note with it: PRE emergent, 63 g ai/ha, 14 days after application, rating scale 0-100.
Text: as §1, §2, §3, §4, §5

For experiment [21], the system named is large crabgrass (Digitaria sanguinalis, DIGSA). The experiment is described as above. The conditions noted are these: PRE emergent, 63 g ai/ha, 14 days after application, rating scale 0-100.
Text: as §1, §2, §3, §4, §5

The subject of experiment [22] is lambsquarters (Chenopodium album, CHEAL). The experiment is described as above. The note with it: PRE emergent, 63 g ai/ha, 14 days after application, rating scale 0-100.
Text: as §1, §2, §3, §4, §5

As to `CC(=O)OC(=NN=C(C)C(C)(C)C)c1cc(-n2c(=O)cc(C(F)(F)F)n(C)c2=O)c(F)cc1Cl` [Compound 5-2, 2-chloro-5-(3,6-dihydro-3-methyl-2,6-dioxo-4-(trifluoromethyl)-1(2H)-pyrimidinyl)-4-fluoro-N-(1,2,2-trimethylpropylidene)-benzenecarbohydrazonic Acid, Acetyl Ester], the “phytotoxicity rating AMBEL” value is listed as 90 in experiment [1] and 60 in experiment [12]. For the same compound, the “phytotoxicity rating SETVI” value in experiment [2] stood at 50; in experiment [13], 70. Also, the “phytotoxicity rating CASOB” value in [3] and in experiment [14] was 55 each time. Besides, the “phytotoxicity rating AMARE” value in experiment [4] is listed as 95; in [15] it was 100. The results for the “phytotoxicity rating XANST” value in experiment [5] and in experiment [16] were 99 and 0, respectively. For the same compound, the “phytotoxicity rating ECHCO” value in [6] came to 95. Besides, the “phytotoxicity rating SORHA” value worked out at 55 in experiment [7] and 70 in experiment [18]. Besides, the “phytotoxicity rating IPOHE” value in [8] was 100; in experiment [19] it was 95. The “phytotoxicity rating ABUTH” value in experiment [9] amounted to 100; in [20], 95. The “phytotoxicity rating DIGSA” value in experiment [10] amounted to 50; in experiment [21], 60. The “phytotoxicity rating CHEAL” value in experiment [11] and in experiment [22] was 100 each time. Besides, in experiment [17], the “phytotoxicity rating ECHCG” value came to 40.
